The values that follow come from patent publication US7598269B2, “Methods and compositions for treating amyloid-related diseases” (Bellus Health (International) Limited, priority 2003, dated 2009).

One test has as its system Aβ peptides. The experiment in a line: Short term treatment of TgCRND8 mice: Aβ peptide levels. The format is in vivo, Mouse. The conditions noted are these: after 14 and 28 days of treatment. How it is done:
The short term therapeutic effect of 19 compounds of the invention was studied. These compounds were administered over a 14 or 28 day period at the end of which the levels of Aβ peptides in the plasma and brain of TgCRND8 animals were determined.
Starting at 11 weeks of age (±1 week) animals received daily administration of their respective treatment for a period of 14 or 28 days (groups 2-21), at a dose of 250 mg/kg at 10 ml/kg or of vehicle only (water; group 2) or 1% methyl cellulose only (group 21). The route of administration was subcutaneous for water-soluble compounds and oral for compounds solubilized in methylcellulose 1% (MC 1%). At the end of the treatment periods, plasma and perfused brains were collected for quantification of Aβ levels.
Aβ levels were evaluated in plasma and brain samples by ELISA using Human Aβ40 and Aβ42 Fluorometric ELISA kits from Biosource (Cat. No. 89-344 and 89-348) according to manufacturer's recommended procedures. […] The plate was incubated for 35 minutes at room temperature and the plate was read using a titer plate reader at an excitation wavelength of 460 nm and emission at 560 nm.
Compounds were scored based on their ability to modulate levels of Aβ peptides in the plasma and the cerebral soluble/insoluble levels in the brain. […] The strongest effects are recorded as “+++” or “−−−” while the weakest are shown as “+” or “−”.

Another test addresses T1, NAC peptide (Homo sapiens, UniProt P37840).
T1 construct: NAC is a 35 amino acid long peptide with highly hydrophobic stretches
The experiment in a line: Binding to NAC peptide by electrospray mass spectrometry. The conditions noted are these: area of bound NAC-compound complex peaks / unbound NAC; compound:NAC 5:1, 6.6% EtOH, pH 7.4. How it is done:
The ability of the compounds of the present invention to bind to NAC peptide in aqueous solution was evaluated. The binding ability correlates to the intensities of the peptide-compound complex peaks observed by the Electrospray Mass Spectrum. Millipore distilled deionized water was used to prepare all aqueous solutions. For pH determination a Beckman Φ36 pH meter fitted with a Corning Semi-Micro Combination pH Electrode was employed.
The optimal cone voltage was determined to be 20V.
Mass spectrometry—Mass spectrometric analysis was performed using a Waters ZQ 4000 mass spectrometer equipped with a Waters 2795 sample manager. MassLynx 4.0 (earlier by MassLynx 3.5) was used for data processing and analysis. Test compounds were mixed with disaggregated peptides in aqueous media (6.6% EtOH) at a 5:1 ratio (20 μM NAC: 100 μM of test compound or 40 μM NAC:200 μM of test compound). The pH of the mixture was adjusted to 7.4 (±0.2) using 0.1% NaOH (3-5 μL). Periodically, NAC peptide solution at 20 μM or 40 μM was also prepared in the same fashion and run as control. The spectra were obtained by introducing the solutions to the electrospray source by direct infusion using a syringe pump at a flow rate of 25 μl/min, and scanning from 100 to 2100 Da in the positive mode. The scan time was 0.9 sec per scan with an inter-scan delay of 0.1 sec and the run time was 5 min for each sample. All the mass spectra were sum of 300 scans. The desolvation and source temperature was 70° C. and the cone and capillary voltage were maintained at 20 V and 3.2 kV respectively.
The total area under the peaks for the bound NAC-compound complex divided by total area under the peaks for unbound NAC was determined for each compound tested.

Another test has as its target T2, Aβ40 (Homo sapiens, UniProt P05067).
T2 construct: from tissue; host or cells: plasma and brain homogenate of TgCRND8 transgenic mice (hAPP transgene)
As to the kind of experiment: Short term treatment of TgCRND8 mice: Aβ40 levels in plasma and brain (ELISA). The conditions noted are these: for Aβ40 Change Insoluble / Aβ40 Change Soluble: brain homogenate; for Aβ40 Change: plasma, vehicle (water) group, TgCRND8 mice. It is filed as in vivo, Mouse. The source says: (§1) Transgenic mice, […]8, expressing the human amyloid precursor protein (hAPP) develop a pathology resembling Alzheimer's disease. In particular, high levels of Aβ40 and Aβ42 have been documented in the plasma and the brain of these animals at 8-9 weeks of age, followed by early accumulation of amyloid plaques similar to the senile plaques observed in […]. These animals also display progressive cognitive deficits that parallel the appearance of degenerative changes. See, […], et al., J. Biol. Chem. 276, 21562-70 (2001). The short term therapeutic effect of 19 compounds of the invention was studied. […] The following abbreviations are used to designate these animals from the 3rd and 4th generation backcross in the present protocol: TgCRND8-2.B6C3F1 (N3); TgCRND8-2.B6C3F1 (N4). Baseline animals (Group 1) consisted of naive TgCRND8-2.B6C3F1(N3) at 11±1 weeks of age. These mice were used to determine the Aβ levels in the plasma and brain of naive transgenic animals at the initiation of treatment. […] At the end of the treatment periods, plasma and perfused brains were collected for quantification of Aβ levels. […] Plasma samples were immediately frozen and stored at -80° C. pending analysis. The brains were removed, frozen, and stored at -80° C. awaiting analysis. […] Samples were spun at 15000 g for 20 minutes and the supernatants were transferred to fresh tubes. […] The tubes were vortexed for 30 seconds and frozen at -80° C. […] Samples were thawed at room temperature, sonicated at 80° C. for 15 minutes and frozen again. This cycle was repeated 3 times to ensure homogeneity and samples were returned to -80° C. pending analysis. Aβ levels were evaluated in plasma and brain samples by ELISA using Human Aβ40 and Aβ42 Fluorometric ELISA kits from Biosource (Cat. […] In short, samples were thawed at room temperature, sonicated for 5 minutes at 80° C. (sonication for brain homogenates; no sonication for plasma samples) and kept on ice. Aβ peptides were captured using 100 μl of the diluted samples to the plate and incubated without shaking at 4° C. overnight. The samples were aspirated and the wells were rinsed 4 times with wash buffer obtained from the Biosource ELISA kit. The anti-Aβ40 or anti-Aβ42 rabbit polyclonal antiserum (specific for the Aβ40 or Aβ42 peptide) was added (100 μl) and the plate was incubated at room temperature for 2 hours with shaking. The wells were aspirated and washed 4 times before adding 100 μl of the alkaline phosphatase labeled anti-rabbit antibody and incubating at room temperature for 2 hours with shaking. The plates were then rinsed 5 times and the fluorescent substrate (100 μl) was added to the plate. The plate was incubated for 35 minutes at room temperature and the plate was read using a titer plate reader at an excitation wavelength of 460 nm and emission at 560 nm. Compounds were scored based on their ability to modulate levels of Aβ peptides in the plasma and the cerebral soluble/insoluble levels in the brain. Levels of Aβ observed in the plasma and brain of treated animals were normalized using values from vehicle-treated (water) or methylcellulose-treated control groups and ranked according to the strength of the pharmacological effect. Increases in the levels of Aβ peptides are indicated using “+” symbols, while decreases in the levels of Aβ peptides are indicated using “-” symbols. The strongest effects are recorded as “+++” or “---” while the weakest are shown as “+” or “-”.
Background: ELISA stands for enzyme-linked immunosorbent assay.

Another test has as its target T3, Aβ42 (Homo sapiens, UniProt P05067).
T3 construct: from tissue; host or cells: plasma and brain homogenate of TgCRND8 transgenic mice (hAPP transgene)
The experiment in a line: Short term treatment of TgCRND8 mice: Aβ42 levels in plasma and brain (ELISA). The format is in vivo, Mouse. The conditions noted are these: for Aβ42 Change Insoluble / Aβ42 Change Soluble: brain homogenate; for Aβ42 Change: plasma, vehicle (water) group, TgCRND8 mice.
Source text: as §1

The mark [1] stands for this setting: vehicle group, Day 14, 250 mg/kg daily subcutaneous.
Setting [2] is: vehicle group, Day 28, 250 mg/kg daily subcutaneous.
Where [3] appears, read: Day 14, 250 mg/kg daily subcutaneous.
The mark [4] stands for this setting: Day 28, 250 mg/kg daily subcutaneous.
Setting [5] is: methylcellulose group, Day 14, 250 mg/kg daily oral.
The mark [6] stands for this setting: methylcellulose group, Day 28, 250 mg/kg daily oral.

T2 sequence (P05067 672-711 limits assumed): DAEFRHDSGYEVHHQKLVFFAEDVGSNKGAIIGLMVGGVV
T3 sequence (P05067 672-713 limits assumed): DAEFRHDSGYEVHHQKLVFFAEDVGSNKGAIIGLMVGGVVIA

For `CC(C)(C)NCCCS(=O)(=O)O` [Compound BX, 3-(t-butyl)amino-1-propanesulfonic acid], the “levels of Aβ peptides in the plasma” value with Aβ peptides is recorded as “significant increase”.

Take `NCCCCS(=O)(=O)[O-].[Na+]`: the “Binding Strength” value on NAC peptide is “− (None; when the total binding is between 30% and 0%)”.

For CH3(CH2)9N^+(CH3)2(CH2)3SO3^− [DB], the “Binding Strength” value at NAC peptide is “+++ (Strong; when the total binding is 120% and higher)”.

Turning to `O=C1NCCCC[C@@H]1NCCCS(=O)(=O)[O-].[Na+]`, the “Binding Strength” value on NAC peptide is “+ (Weak; when the total binding is between 70% and 30%)”.

For the molecule `CCCCCCCCCCCC[N+](C)(C)CCCS(=O)(=O)[O-]` [DF, CH3(CH2)11N^+(CH3)2(CH2)3SO3^−], the “Binding Strength” value on NAC peptide is “++ (Moderate; when the total binding is between 120% and 70%)”.

Regarding `CCCCCCCNCCCS(=O)(=O)O` [CX, 3-heptylamino-1-propane-sulfonic acid], the results for the “Aβ40 Change Insoluble” value on Aβ40 (setting [1]) and at Aβ40 (setting [2]) were “− (Decreases in the levels of Aβ of 5 to 19% are scored as “−”)” and “+ (increases in the levels of Aβ (relative to untreated control) of 20 to 39% are scored as “+”)”, respectively. Further, the “Aβ40 Change Soluble” value at Aβ40 (setting [1]) is “− (Decreases in the levels of Aβ of 5 to 19% are scored as “−”)”. In addition, the “Aβ40 Change” value at Aβ40 (setting [3]) and at Aβ40 (setting [4]) was “++ (increases of 40 to 69% are scored as “++”)” each time. In addition, the “Aβ42 Change Insoluble” value was “− (Decreases in the levels of Aβ of 5 to 19% are scored as “−”)” at Aβ42 (setting [1]) and “+++ (increases of 70% or higher are scored as “+++”)” at Aβ42 (setting [2]). The “Aβ42 Change Soluble” value at Aβ42 (setting [1]) was “+ (increases in the levels of Aβ (relative to untreated control) of 20 to 39% are scored as “+”)”; at Aβ42 (setting [2]), “++ (increases of 40 to 69% are scored as “++”)”. The “Aβ42 Change” value was “++ (increases of 40 to 69% are scored as “++”)” on Aβ42 (setting [3]) and “+ (increases in the levels of Aβ (relative to untreated control) of 20 to 39% are scored as “+”)” on Aβ42 (setting [4]).

Regarding `O=S(=O)(O)CCCNCCc1c[nH]c2ccccc12` [Compound BT, 3-{[2-(3-indolyl)ethyl]-amino}-1-propanesulfonic acid], the “Aβ40 Change Insoluble” value is given as “+++ (increases of 70% or higher are scored as “+++”)” on Aβ40 (setting [5]) and “++ (increases of 40 to 69% are scored as “++”)” at Aβ40 (setting [6]). Besides, the “Aβ40 Change Soluble” value on Aβ40 (setting [6]) is recorded as “−− (decreases of 20 to 38% are scored as “−−”)”. In addition, the “Aβ42 Change Soluble” value at Aβ42 (setting [5]) and on Aβ42 (setting [6]) was “++ (increases of 40 to 69% are scored as “++”)” throughout.

Take `CCCCCCCCCCCCCC[N+](C)(C)CCCS(=O)(=O)[O-]` [NA, CH3(CH2)13N^+(CH3)2(CH2)3SO3^−]: the “Binding Strength” value on NAC peptide was “++ (Moderate; when the total binding is between 120% and 70%)”.
